The record followed here is US7892831B2, “Method for in vitro mass culture of Aloe vera” (priority 2006, dated 2011).

This assay concerns regenerated Aloe vera shoots. Description: in vitro rooting of regenerated Aloe vera shoots. To be noted: MS supplemented with IAA (0.5, 1.0 or 2.0 mg/L); hormone-free media gave 100% rooting in 3 weeks. In kind it is cell-based, Aloe vera (Aloe barbadensis). On the procedure:
Regenerated shoots were rooted in both media containing indole acetic acid (0.5, 1.0, or 2.0 mg/L LAA) and MS media lacking any hormones. Shoots were more successfully rooted in the MS media lacking hormones. The culture conditions were the same as those used for initiation.

As for indole acetic acid [IAA], the rooting of shoots entry is on record as “no rooting was observed”.
